We go through two compounds from ChEMBL document CHEMBL4052678, “Urotensin core mimics that modulate the biological activity of urotensin-II related peptide but not urotensin-II” (Bioorg Med Chem Lett, 2017).

Common to all, as to format: functional
Assay [1] concerns Aorta. The experiment in a line: Inhibition of urotensin II-related peptide-induced contraction in Sprague-Dawley rat aortic rings assessed as Emax for urotensin II-related peptide relative to KCl-induced contraction (reference value: 8.07 +/- 0.03).
Assay [2] deals with Aorta. The assay can be described thus: Inhibition of human urotensin II-induced contraction in Sprague-Dawley rat aortic rings assessed as Emax for urotensin II at 30 umol relative to KCl-induced contraction (reference value: 104 +/- 4%).
The test system of assay [3] is Aorta. The assay can be described thus: Inhibition of human urotensin II-induced contraction in Sprague-Dawley rat aortic rings assessed as Emax for urotensin II relative to KCl-induced contraction (reference value: 8.59 +/- 0.08).
For assay [4], the system named is Aorta. The assay can be described thus: Inhibition of urotensin II-related peptide-induced contraction in Sprague-Dawley rat aortic rings assessed as Emax for urotensin II-related peptide at 30 umol relative to KCl-induced contraction (reference value: 113 +/- 2%).
In assay [5] the test system is Aorta. The experiment in a line: Induction of contraction in Sprague-Dawley rat aortic rings at 30 umol relative to KCl-induced contraction.
The test system of assay [6] is Aorta. The assay can be described thus: Induction of contraction in Sprague-Dawley rat aortic rings at 25 umol relative to KCl-induced contraction.

Molecules are shown by their SMILES. pEC50: −log10 of the molar value. Activity calls are given as the source filed them. The rule behind the calls is not given here. Starred links: 1 amine or outer side, 2 acyl side, 3 side chain; linkers in the order of their positions; H or OH if unused. Non-standard residues stand in square brackets, D forms with d. Residues, ends and D or L forms follow the SMILES beside them. X1 = O=C(Cn1cc(CN[*:1])nn1)[*:2]

Broadly, the pEC50 is −log10 of the EC50, conventionally taken in molar units. The Emax is the maximal effect, on the per cent scale that the assay sets.

Consider `NCCCC[C@@H]1NC(=O)[C@H](Cc2c[nH]c3ccccc23)NC(=O)Cn2cc(nn2)CNC(=O)[C@H](Cc2ccc(O)cc2)NC1=O`, for which the pEC50 with Aorta [1] was 8.52; with Aorta [3], 8.87. Also, the values for the Emax in the assay with Aorta [2] and in the assay with Aorta [4] were 97% and 90%, respectively. Moreover, the outcome in the assay on Aorta [5] was Active.
Consider `NCCCC[C@@H]1NC(=O)[C@H](Cc2c[nH]c3ccccc23)NC(=O)[C@H](Cc2ccccc2)NC(=O)Cn2cc(nn2)CNC(=O)[C@H](Cc2ccc(O)cc2)NC1=O` (cyclo(FWKY[X1])), for which the negative logarithm of the EC50 (pEC50) in the assay with Aorta [1] was 9.30; with Aorta [3], 8.37. Further, the Emax in the assay on Aorta [2] is 96%; in the assay with Aorta [4] it was 54%. The result in the assay with Aorta [6] was Active.
